The CATMoS acute toxicity set (Mansouri et al. 2021)
“And” between values parts separate entries of the source, which are not always exact repeats. Identical values can stand only once.

assay: rat acute oral toxicity; settings: in vivo

Compound	LD50
C=C(C)C(=O)OCc1ccccc1	3980 mg/kg
CNS(=O)(=O)c1cc(OC)c(N)cc1OC	815 mg/kg
Ic1ccccc1	1750 mg/kg
O=C1NS(=O)(=O)c2ccccc21	8820 mg/kg
Cc1cc(O)ccc1Cl	1830 mg/kg
CC=C1CC2C=CC1C2 (stereo not drawn)	2280 mg/kg
O=C(O)C1CCC(C(=O)O)CC1 (stereo not drawn)	1900 mg/kg
NC(=S)Nc1cccc2ccccc12	3 mg/kg
Nc1c(Cl)c(Cl)nc(C(=O)O)c1Cl	686 mg/kg
COP(=O)(OC)O/C(=C\Cl)c1cc(Cl)c(Cl)cc1Cl	480 mg/kg
CCCCN(CC)C(=O)SCCC	921 mg/kg
CC(C)N(C(=O)COc1nnc(C(F)(F)F)s1)c1ccc(F)cc1	480 mg/kg
C=CCN=C=S	112 mg/kg
NCCCOCCOCCOCCCN	2850 mg/kg
Nc1ncnc2c1ncn2C1CC(O)C(COP(=O)(O)OP(=O)(O)OP(=O)(O)O)O1 (stereo not drawn)	6770 mg/kg
N#CCNC(=O)c1cnccc1C(F)(F)F	884 mg/kg
CCOC(=O)C(SP(=S)(OC)OC)c1ccccc1 (stereo not drawn)	71 mg/kg
CS	116 mg/kg
COP(=S)(OC)Oc1ccc([N+](=O)[O-])cc1	6.01 mg/kg
CNC(=O)N(C)c1nnc(C(C)(C)C)s1	640 mg/kg
C=C(Cl)Cl	80 mg/kg
CCCCCCCCCC[N+](C)(C)CCCCCCCCCC	84 mg/kg
COP(=S)(OC)SCc1nc(N)nc(N)n1	890 mg/kg
CCN(CC)C(=S)SSC(=S)N(CC)CC	500 mg/kg

Compound	LD50
CCC(C)=NO	930 mg/kg
OCC(F)(F)F	153 mg/kg
OCC1CO1 (stereo not drawn)	420 mg/kg
CC(=O)C(C)=O	1580 mg/kg
ClCc1ccccc1	440 mg/kg
COC(=O)N(C(=O)N1CO[C@@]2(C(=O)OC)Cc3cc(Cl)ccc3C2=N1)c1ccc(OC(F)(F)F)cc1	268 mg/kg
CC(O)C(=O)O (stereo not drawn)	3540 mg/kg
CC(C1CC1)C(O)(Cn1cncn1)c1ccc(Cl)cc1 (stereo not drawn)	350 mg/kg
O=C(O)COc1ccc(Cl)cc1Cl	625 mg/kg and 552 mg/kg and 370 mg/kg
CCCCOC(=O)c1ccccc1	735 mg/kg
Cc1ccccc1Cc1ccccc1	3020 mg/kg
COC(=O)OC(=O)OC	260 mg/kg
O=P1(N(CCCl)CCCl)NCCCO1 (stereo not drawn)	100 mg/kg
OCc1ccco1	177 mg/kg
Cc1ccccc1OCC1CO1 (stereo not drawn)	2800 mg/kg
O=C1OC(=O)c2ccccc21	1530 mg/kg
CC(C)C#N	50 mg/kg
CCN(CC)CCNC(=O)c1ccc(N)cc1	1510 mg/kg
O=P(OCCCl)(OCCCl)OCCCl	466 mg/kg
CCN(CC)CCCN	410 mg/kg
O=C(O)c1ccccc1-c1c2cc(I)c(=O)c(I)c-2oc2c(I)c(O)c(I)cc12	1840 mg/kg
C#CC(C)(C)O	1420 mg/kg
CC(C)c1nn(C(=O)NC(C)(C)C)c(=O)n1N	1020 mg/kg
CCc1cccc(C)c1N(C(=O)CCl)C(C)COC (stereo not drawn)	2200 mg/kg

Compound	LD50
CC(C)C(=O)O	266 mg/kg
CCCCCO	2200 mg/kg
O=C1C(Cl)=C(Cl)C(=O)C(Cl)=C1Cl	4000 mg/kg
COP(=O)(NC(C)=O)SC (stereo not drawn)	700 mg/kg
Cc1ccc(Nc2ccc(Nc3ccc(C)cc3)c3c2C(=O)c2ccccc2C3=O)cc1	3000 mg/kg
COCC(=O)N(c1c(C)cccc1C)C(C)C(=O)OC (stereo not drawn)	566 mg/kg
Oc1c(Cl)cc(Cl)c(Cl)c1Cc1c(O)c(Cl)cc(Cl)c1Cl	56 mg/kg
CCCC(=O)O	1630 mg/kg
COP(=S)(OC)Oc1ccc(C#N)cc1	580 mg/kg
OCCc1ccccc1	1600 mg/kg
CC(C)(c1ccc(O)cc1)c1ccc(O)cc1	3250 mg/kg
CN(C)C(=O)Nc1ccc(Cl)c(Cl)c1	437 mg/kg
Cc1ccc([N+](=O)[O-])cc1	2050 mg/kg
CC1(C)CC(=O)CC(C)(C#N)C1 (stereo not drawn)	61.6 mg/kg
CN(C)C(C)(C)CO	1660 mg/kg
CCCCCCCC[Si](OCC)(OCC)OCC	11500 mg/kg
O=CC=Cc1ccccc1	2200 mg/kg
Cc1ccc(O)cc1	207 mg/kg
OCC(CO)(CBr)CBr	1880 mg/kg
CC(C)=CC1C(C(=O)OCc2coc(Cc3ccccc3)c2)C1(C)C (stereo not drawn)	1240 mg/kg
C=CC(=O)NC(C)(C)CC(C)=O	1000 mg/kg
O=[N+]([O-])c1ccc(Cl)cc1Cl	379 mg/kg
N#CCC(=O)O	1010 mg/kg
O=[N+]([O-])c1cccc(Cl)c1	300 mg/kg

Compound	LD50
N#Cc1ccc(Cl)c(Cl)c1	200 mg/kg
CNC(=O)Oc1cccc2c1OC(C)(C)C2	5.15 mg/kg
CN(C)CC/C=C1\c2ccccc2Sc2ccc(Cl)cc21	200 mg/kg
CCC(C)C=O (stereo not drawn)	6400 mg/kg
CCOP(=O)(NC(C)C)Oc1ccc(SC)c(C)c1 (stereo not drawn)	2.7 mg/kg
CNC(=O)ON=C(C)SC	14.7 mg/kg
CC(C)CCCCCCCCCCOP(OCCCCCCCCCCC(C)C)OCCCCCCCCCCC(C)C	12000 mg/kg
CC(=O)OCCc1ccccc1	3670 mg/kg
CN(C)C=O	3000 mg/kg
O=C(NC(=O)c1c(F)cccc1F)Nc1ccc(Cl)cc1	790 mg/kg
O=C(O)C(F)(OC(F)(F)C(F)(F)C(F)(F)F)C(F)(F)F (stereo not drawn)	1750 mg/kg
CC(=O)C(C)C	148 mg/kg
CCC1CO1 (stereo not drawn)	500 mg/kg
CC(C)N(C(=O)CCl)c1ccccc1	710 mg/kg
N#CC(Cl)Cl	330 mg/kg
N#CCCC(Br)(C#N)CBr (stereo not drawn)	515 mg/kg
CCCCCCC(CO)CCCC (stereo not drawn)	13000 mg/kg
CCO[Si](CCCSC#N)(OCC)OCC	986 mg/kg
CCCCCCCCCCCC[N+](C)(C)[O-]	1060 mg/kg
ClCC(Cl)Cl	836 mg/kg
COc1ccc(OC)c([N+](=O)[O-])c1	2120 mg/kg
CCOP(=O)(OCC)OC(=CCl)c1ccc(Cl)cc1Cl	9.66 mg/kg
O=C(C(Cl)(Cl)Cl)C(Cl)(Cl)Cl	240 mg/kg
ClC(Br)Br	370 mg/kg

Compound	LD50
CC(Cc1ccc(C(C)(C)C)cc1)CN1CCCCC1 (stereo not drawn)	1450 mg/kg
CC(C)(C)NCCOCCO	1400 mg/kg
O=[N+]([O-])c1ccc(Cl)c(Cl)c1	625 mg/kg
CCCCCC(=O)O	3000 mg/kg
Cc1ccccc1C(OCCN(C)C)c1ccccc1 (stereo not drawn)	255 mg/kg
CO[C@H]1/C=C/O[C@@]2(C)Oc3c(C)c(O)c4c(O)c(c(/C=N/N5CCN(C)CC5)c(O)c4c3C2=O)NC(=O)/C(C)=C\C=C\[C@H](C)[C@H](O)[C@@H](C)[C@@H](O)[C@@H](C)[C@H](OC(C)=O)[C@@H]1C	900 mg/kg
CC(Cc1ccc(C(C)(C)C)cc1)CN1CC(C)OC(C)C1 (stereo not drawn)	1670 mg/kg
CCCC(C)C1(CC)C(=O)N=C(O)NC1=O (stereo not drawn)	52 mg/kg and 118 mg/kg
CN(C)C(=O)C(c1ccccc1)c1ccccc1	685 mg/kg
CC(Oc1cc(Cl)c(Cl)cc1Cl)C(=O)O (stereo not drawn)	650 mg/kg
CCCCC(C#N)(Cn1cncn1)c1ccc(Cl)cc1 (stereo not drawn)	1600 mg/kg
OC(O)C(Cl)(Cl)Cl	479 mg/kg
Cn1sccc1=O	105 mg/kg
CC[Si](Cl)(Cl)Cl	800 mg/kg
O=C1c2ccccc2C(=O)N1SC(Cl)(Cl)Cl	2640 mg/kg
CC(C)c1ccccc1	1400 mg/kg
CCCOP(=O)(OCCC)Oc1ccc(SC)cc1	61 mg/kg
CC(C)CCCCCOC(=O)c1ccccc1C(=O)OCCCCCC(C)C	22000 mg/kg
OC1CCCCC1	1400 mg/kg
N#Cc1nn(-c2c(Cl)cc(C(F)(F)F)cc2Cl)c(N)c1S(=O)C(F)(F)F (stereo not drawn)	92 mg/kg
CC(CCl)OC(C)CCl (stereo not drawn)	240 mg/kg
ClC1=C(Cl)C2(Cl)C3C(Cl)C(Cl)CC3C1(Cl)C2(Cl)Cl (stereo not drawn)	200 mg/kg
CCON=C(CC)C1=C(O)CC(c2c(C)cc(C)cc2C)CC1=O (stereo not drawn)	934 mg/kg
CCC(=O)C(CC(C)N(C)C)(c1ccccc1)c1ccccc1 (stereo not drawn)	30 mg/kg

Compound	LD50
CC1(C)[C@H](/C=C(\Cl)C(F)(F)F)[C@@H]1C(=O)O[C@H](C#N)c1cccc(Oc2ccccc2)c1	114 mg/kg
CN(C)C(=O)Nc1ccc(Oc2ccc(Cl)cc2)cc1	3000 mg/kg
COC(C)(C)CCCC(C)C/C=C/C(C)=C/C(=O)OC(C)C (stereo not drawn)	2320 mg/kg
C[C@@H](O)C(=O)O	3540 mg/kg
N#CC(Br)(Br)C(N)=O	178 mg/kg
CCCCC#N	332 mg/kg
Cc1cccnc1	400 mg/kg
Clc1cccc(Cl)c1N=C1NCCN1	67.3 mg/kg
CC1(C)C(C=C(Br)Br)C1C(=O)OC(C#N)c1cccc(Oc2ccccc2)c1 (stereo not drawn)	40.5 mg/kg
CCNC(=O)CSP(=S)(OC)OC	125 mg/kg
Oc1ccc(O)cc1	302 mg/kg
ClC1C(Cl)C(Cl)C(Cl)C(Cl)C1Cl (stereo not drawn)	88 mg/kg and 100 mg/kg
CCCN(CCC)C(=O)SCC	916 mg/kg
C1CNCCN1	1980 mg/kg
O=C(O)C1(C(=O)Nc2ccc(Cl)cc2Cl)CC1	208 mg/kg
C/C(=N\C#N)N(C)Cc1ccc(Cl)nc1	146 mg/kg
ClCCCBr	930 mg/kg
CSc1ccc(C(=O)C(C)(C)N2CCOCC2)cc1	1460 mg/kg
O=C(CC(C(=O)OC1CCCCC1)S(=O)(=O)O)OC1CCCCC1 (stereo not drawn)	2830 mg/kg
NC1CCCCC1N (stereo not drawn)	1170 mg/kg
CCN(CC)c1nc(Nc2ccc(/C=C/c3ccc(Nc4nc(Nc5cc(S(=O)(=O)O)ccc5S(=O)(=O)O)nc(N(CC)CC)n4)cc3S(=O)(=O)O)c(S(=O)(=O)O)c2)nc(Nc2cc(S(=O)(=O)O)ccc2S(=O)(=O)O)n1	11300 mg/kg
Cc1ccc([N+](=O)[O-])c(C)c1	1690 mg/kg
COCCCN	598 mg/kg
CC(COCC(C)OC(=O)c1ccccc1)OC(=O)c1ccccc1 (stereo not drawn)	3300 mg/kg

Compound	LD50
CC=O	661 mg/kg
CO[Si](C)(OC)C1CCCCC1	2760 mg/kg
CCCCSP(SCCCC)SCCCC	910 mg/kg
CCCCC(CC)CO (stereo not drawn)	2050 mg/kg
COc1ccccc1NC(=O)CC(C)=O	1600 mg/kg
CCCCCCCCOC(=O)c1ccccc1C(=O)OCCCCCCCC	47000 mg/kg
Nc1ccncc1	14 mg/kg
CCCCC(Oc1ccc([N+](=O)[O-])cc1C=O)C(=O)O (stereo not drawn)	500 mg/kg
CSSC	290 mg/kg
COCCO	2260 mg/kg
O=c1oc2ccccc2c(O)c1C1CC(c2ccc(-c3ccccc3)cc2)Cc2ccccc21 (stereo not drawn)	0.925 mg/kg
CNC(=O)ON=C1C(Cl)C2CC(C#N)C1C2 (stereo not drawn)	19 mg/kg
CCCCN(CCCC)SN(C)C(=O)Oc1cccc2c1OC(C)(C)C2	51 mg/kg
Clc1cc(-c2cc(Cl)c(Cl)c(Cl)c2)cc(Cl)c1Cl	4250 mg/kg
OC[P+](CO)(CO)CO	161 mg/kg
CCOC(=O)C1(c2ccccc2)CCN(C)CC1	162 mg/kg
CC(C)c1ccc(-c2ccccc2)cc1	4570 mg/kg
ClC1=C(Cl)[C@]2(Cl)[C@@H]3[C@@H]4C[C@@H]([C@H]5O[C@@H]45)[C@@H]3[C@@]1(Cl)C2(Cl)Cl (single isomer, unassigned)	24 mg/kg
Nc1cccc([N+](=O)[O-])c1	535 mg/kg
